The source of these data is patent publication US11497726B2, “Topical therapy for the treatment of cervical intraepithelial neoplasia (CIN) and cervical cancer using nanoparticles of taxanes” (DFB SORIA, LLC, priority 2018, dated 2022).

In one data set the test system is high-grade CIN. To be noted: cited from earlier work.
The next data set deals with Gottingen minipigs. Nature of the data set: Dermal toxicity study, 28 days, GLP. The following applies: topical, daily for 28 days. It counts as in vivo. How it is done:
The GLP-compliant study was conducted in Gottingen minipigs to characterize the toxicity of the formulations applied topically to 10% body surface area daily for 28 days. […] Reversibility of findings was also evaluated following a 2-week recovery period. Parameters evaluated included clinical observations, mortality and moribundity checks, dermal scoring, body weight, food consumption, eye examinations, test site photographs, electrocardiology, clinical pathology, bioanalysis and toxicokinetic evaluation, organ weights, macroscopic pathology and histopathology. There were no formulation-related effects on survival, clinical signs, dermal irritation, body weights, body weight gains, food consumption, ophthalmic findings, or cardiology parameters.

Data set [1] in a line: Particle size of paclitaxel nanoparticle lots (ACCUSIZER 780). It counts as physicochemical. On the procedure: Instrument parameters: Max. Concentration: 9000 particles/mL, No. containers: 1, Sensor Range: Summation, Lower Detection Limit: 0.5 μm, Flow Rate: 30 mL/min, No. Analysis pulls: 4, Time between pulls: 1 sec, Pull volume: 10 mL, Tare Volume: 1 mL, Prime volume: 1 mL, Include First Pull: Not Selected.
Vortexed for 5-10 minutes and sonicated in a water batch for 1 minute.
Method: Filled a plastic bottle with filtered (0.22 μm) 0.1% w/w SDS solution and analyzed the Background.

Data set [2] can be described thus: Crystal growth of paclitaxel nanoparticles, visual observation by light microscopy. It counts as physicochemical.
Data set [3] is described as follows: Specific surface area (SSA), BET isotherm. It counts as physicochemical. How it is done:
(§1) As used herein, the “specific surface area (SSA)” is the total surface area of the taxane nanoparticle per unit of taxane mass as measured by the Brunauer-Emmett-Teller (“BET”) isotherm by the following method: a known mass between 200 and 300 mg of the analyte is added to a 30 mL sample tube. […] The automated test is then carried out using the BETWIN® software package and the surface area of each sample is subsequently calculated. The bulk density measurement can be conducted by pouring the taxane nanoparticles into a graduated cylinder without tapping at room temperature, measuring the mass and volume, and calculating the bulk density.

Data set [4] in a line: Bulk density (not tapped). It counts as physicochemical. On the procedure: as §1
Data set [5] in a line: Solubility of paclitaxel in various solvents (HPLC). It counts as physicochemical.
Method: Step “d” was continued for each vial for a total of 48 hours.
For data set [6] the following is noted: methanol/water 15/85 (v/v), 37° C., pH 7, 75 rpm, cited from earlier work.
The test system of the next data set is rabbit skin. The following applies: Draize rabbit skin test model; cited from earlier work.
The conditions of data set [7]: summary statement on the cited study; cited from earlier work.
Setting [8] is: lot used in formulas listed in Table 3.
The mark [9] stands for this setting: lot used in formulas listed in Tables 16-19.

Where two headings read alike, the source gives them in different places.

For the molecule `CC(C)Cn1cnc2c(N)nc3ccccc3c21` [Imiquimod], the tolerability result with high-grade CIN (despite frequent adverse effects such as vaginal discharge, vulvar pain, fever, headache, and fatigue) was “generally well-tolerated”. Further, the “efficacy in the treatment of high-grade CIN” value in the data set on high-grade CIN (topically applied to the ectocervix) is recorded as “some efficacy”.

Consider `CC(=O)O[C@H]1C(=O)[C@@]2(C)[C@H]([C@H](OC(=O)c3ccccc3)[C@]3(O)C[C@H](OC(=O)[C@H](O)[C@@H](NC(=O)c4ccccc4)c4ccccc4)C(C)=C1C3(C)C)[C@]1(OC(C)=O)CO[C@@H]1C[C@@H]2O` [Paclitaxel nanoparticles, paclitaxel], for which, in the data set with Gottingen minipigs, the “effect of the presence of the nanoparticles in the formulations on dermal irritation” value is recorded as “negligible effect”. The “Particle size, Mean (number-weighted differential distribution)” value in [1] (setting [8]) came out at 0.861 μm; in [1] (setting [9]), 0.83 μm. Further, the “Particle size, Median (number-weighted differential distribution)” value in data set [1] (setting [8]) was 0.710 μm. Also, the “Particle size, Mode (number-weighted differential distribution)” value in data set [1] (setting [8]) was determined as 0.572 μm. Further, the “Needle shaped crystals observed? (visual observation by light microscopy)” value (from here on “Needle shaped crystals observed?”) in [2] (in Aluminum sulfate 0.1-0.2% in water, 7 days, RT) is listed as “Yes, >5 μm, @”; in [2] (in Ammonium lauryl sulfate 2% in water, 3 days, RT) it was “Yes, >5 μm @”; in [2] (in Benzalkonium chloride (50%) 2% in water, 7 days & 21 days, RT), “No, <5 μm @”; in data set [2] (in CARBOPOL ULTREZ 10 (with Ammonium hydroxide as neutralizer) 0.5% in water, 8 days & 21 days, RT), “No, <5 μm, @”; in data set [2] (in Castor Oil 100%, 24 hrs & 9 days, RT), “No, <5 μm @”; in data set [2] (in Dimethicone, 1000 cSt 100%, 24 hrs & 6 days, RT) it was “No, <5 μm @”. Besides, the “Needle shaped crystals observed?” value in data set [2] (in FOMBLIN HC04 100%, 4, 7 & 13 days, RT) is “No, <5 μm @”; in data set [2] (in Hydroxyethyl cellulose 1% in water, 7 days, RT) it was “Yes, >5 μm, @”; in data set [2] (in Hydroxypropyl methylcellulose 1% in water, 3 days, RT), “Yes, >5 μm @”; in data set [2] (in Lecithin 1% in water, 24 hrs, RT), “Yes, >10 μm, @”; in [2] (in Light Mineral Oil NF 100%, 3 days, RT & 40 C.), “No, <5 μm @”; in data set [2] (in Magnesium nitrate 5% in water, 3 days, RT), “Yes, >5 μm @”. Also, the “Needle shaped crystals observed?” value in data set [2] (in Mannitol 5% in water, 7 days, RT) was “Yes, >5 μm, @”; in data set [2] (in Mineral Oil USP (heavy) 100%, 3 days, RT & 40 C.), “No, <5 μm @”; in data set [2] (in PEG 400 10% in water, 22 days, RT & 60 C.) it was “Yes, >5 μm @”; in data set [2] (in Poloxamer 188 2% in water, 7 days, RT), “Yes, >5 μm @”; in data set [2] (in Poloxamer 407 2% in water, 5 & 7 days, RT), “No, <5 μm @”; in data set [2] (in Polyoxyl 40 Hydrogenated Castor Oil (KOLLIPHOR RH40) 1% in water, 6 days, RT), “Yes, <5 μm @”. Also, the “Needle shaped crystals observed?” value in data set [2] (in Polysorbate 80 0.5% in Saline, 7 days, RT & 60 C.) is listed as “Yes, >5 μm @”; in [2] (in Polysorbate 80 0.5% in water, 22 days, RT & 60 C.) it was “Yes, <5 μm @”; in [2] (in Povidone 1% in water, 7 days & 21 days, RT), “Yes, <5 μm @”; in data set [2] (in Proline 3% in water, 7 days, RT), “Yes, >5 μm, @”; in data set [2] (in Purified Water 100%, 5 days, RT & 60 C.) it was “Yes, >5 μm, @”; in data set [2] (in ST-Cyclomethicone 5 NF 100%, 24 hrs & 13 days, RT) it was “No, <5 μm @”. The “Needle shaped crystals observed?” value in data set [2] (in Saline 0.9% NaCl in water, 7 days, RT & 60 C.) was “Yes, >10 μm, @”; in data set [2] (in Sodium lauryl sulfate 2% in water, 7 days, RT) it was “Yes, >5 μm, @”; in data set [2] (in Sodium phosphate monobasic 0.75% in water, 7 days, RT), “Yes, >5 μm, @”; in data set [2] (in Sorbitol 5% in water, 7 days, RT), “Yes, >5 μm, @”; in [2] (in Vitamin E TPGS 0.5% in water, 6 days, RT), “Yes, <5 μm @”; in data set [2] (in Zinc acetate […] in water, 7 days, RT), “Yes, >5 μm, @”. In addition, the crystal growth entry is “did not grow” in [2] (in any of the hydrophobic carriers of Table 2) and “did not grow” in [2] (in aqueous solutions of benzalkonium chloride, CARBOPOL ULTREZ 10, or poloxamer 407). Besides, the SSA came out at 41.24 m^2/g in data set [3] (setting [8]) and 26.72 m^2/g in data set [3] (setting [9]). Besides, the “bulk density (not-tapped)” value in data set [4] (setting [8]) was determined as 0.05 g/mL; in data set [4] (setting [9]), 0.09 g/mL.

`CC(=O)O[C@H]1C(=O)[C@@]2(C)[C@H]([C@H](OC(=O)c3ccccc3)[C@]3(O)C[C@H](OC(=O)[C@H](O)[C@@H](NC(=O)c4ccccc4)c4ccccc4)C(C)=C1C3(C)C)[C@]1(OC(C)=O)CO[C@@H]1C[C@@H]2O` [Paclitaxel, paclitaxel]: the “Paclitaxel Solubility at RT” value in data set [5] (in Benzyl Alcohol, NF) was 17.02% w/w; in [5] (in Diethylene Glycol Monoethyl Ether, NF (TRANSCUTOL P)), 33.10% w/w; in data set [5] (in Diisopropyl Adipate (CERAPHYL 230)) it was 3.51% w/w; in [5] (in Dimethyl Isosorbide) it was 38.22% w/w; in data set [5] (in Hexylene Glycol) it was 4.07% w/w; in data set [5] (in Isopropyl Myristate, NF) it was 0.048% w/w. Besides, the “Paclitaxel Solubility at RT” value in data set [5] (in Medium Chain Triglycerides, NF) amounted to 0.32% w/w; in data set [5] (in Mineral Oil, USP (heavy)), 0.3 ppm; in [5] (in Polyethylene Glycol 400, NF), 22.30% w/w; in data set [5] (in Propylene Carbonate), 4.74% w/w; in data set [5] (in Propylene Glycol, USP), 0.88% w/w; in [5] (in Super Refined Oleic Acid, NF) it was 0.041% w/w. The “Paclitaxel Solubility at RT” value in [5] (in Super Refined Oleyl Alcohol, NF) is 0.38% w/w. In addition, the “solubility of paclitaxel in water” value in data set [5] (in water, method of Example 1) is “less than 0.05 ppm”.

With `CC(=O)O[C@@]12CO[C@@H]1C[C@H](O)[C@@]1(C)C(=O)[C@H](O)C3=C(C)[C@@H](OC(=O)[C@H](O)[C@@H](NC(=O)OC(C)(C)C)c4ccccc4)C[C@@](O)([C@@H](OC(=O)c4ccccc4)[C@H]21)C3(C)C` [docetaxel nanoparticles, docetaxel], the “dissolution rate, % dissolved in 30 minutes” value is 9% in [6] (nanoparticles made by milling) and 27% in data set [6] (nanoparticles made by the supercritical carbon dioxide method).

For `CCCCCCCCCCCCN1CCCCCC1=O` [laurocapram, 1-Dodecyl azacycloheptan-2-one], the local skin irritation result in the data set with rabbit skin is “edema and erythema have been observed”.

With Cyclomethicone, the “irritation to vaginal tissues” value in [7] was “non-irritating”.
